Reference: article PMC12645083, “Microwave‐Enhanced Synthesis of 2‐Styrylquinoline‐4‐Carboxamides With Promising Anti‐Lymphoma Activity” (Archiv Der Pharmazie, 2025)

Tests used:
[1] = tested on: Ly1 (DLBCL); conditions: Figure 1; cited from earlier work
[2] = tested on: Ly10 (DLBCL); conditions: Figure 1; cited from earlier work
[3] = tested on: TMD8 (DLBCL); conditions: Figure 1; cited from earlier work
[4] = tested on: VL51 (splenic B-cell lymphoma); conditions: Figure 1; cited from earlier work
[5] = tested on: panel of five tumor cell lines (HD-MB03, RPMI-8402, SU-DHL-8, A549, MDA-MB-231); experiment: Antiproliferative activity, range over the panel of five tumor cell lines; type: cell-based; conditions: Homo sapiens; range over the active cell lines of the five-line panel; 72 h
Method: The synthesized quinoline derivatives 4a–z and 4aa–ah were evaluated in vitro for their antiproliferative activity against a panel of five tumor cell lines (HD‐MB03, medulloblastoma; RPMI‐8402, T‐lymphoblastic leukemia; SU‐DHL‐8, B lymphocyte, large cell lymphoma; A549, non‐small cell lung cancer; MDA‐MB‐231, triple‐negative breast cancer) (Table 2). […] Replacing the 4‐Cl group with a trifluoromethyl group (4ac) reduced antiproliferative activity.
(§1) To test the newly synthesized compounds, various human cell lines were employed. HD‐MB03 cells were purchased from DSMZ (Braunschweig, Germany), while A549, MDA‐MB‐231, RPMI‐8420, SU‐DHL‐8, TOLEDO, VL51, SU‐DHL‐1, SU‐DHL‐18, and KM‐H2 were obtained from ATCC (Manassas, VA, USA). Cells were cultured in DMEM (for MDA‐MB‐231 and A549) or RPMI‐1640 (for RPMI‐8420, SU‐DHL‐8, TOLEDO, VL51, SU‐DHL‐1, SU‐DHL‐18, KM‐H2, and HD‐MB03) media (Gibco, Milan, Italy). Both media were supplemented with 115 units/mL penicillin G (Gibco, Milan, Italy), 115 µg/mL streptomycin (Invitrogen, Milan, Italy), and 10% fetal bovine serum (Invitrogen, Milan, Italy). Peripheral blood mononuclear cells (PBMCs) were isolated from healthy donors as previously described. For cytotoxicity assays, PBMCs were resuspended at 5 × 10⁵ cells/mL in complete RPMI medium with or without 2.5 µg/mL phytohemagglutinin (PHA) (Irvine Scientific) to stimulate T‐cell activation and proliferation. All cell lines were maintained at 37°C in a humidified atmosphere containing 5% CO₂. All compounds were dissolved in DMSO at a 10 mM stock concentration. For dose–response assays, cells were seeded in 96‐well plates at densities optimized for each cell line: HD‐MB03 at 10,000 cells/well, A549 at 4000 cells/well, and MDA‐MB‐231 at 7000 cells/well. All other cell lines were seeded at 20,000 cells/well in a final volume of 100 µL per well. After 24 h, cells were treated with a 6‐point serial dilution of compounds starting from 10 µM, in triplicate for statistical analysis. Seventy‐2 h posttreatment, 10 µL of resazurin solution (100 µg/mL) was added to each well, and cells were incubated for an additional 3–6 h. Fluorescence was measured using a Spark 10 M microplate reader (Tecan Group Ltd., Männedorf, Switzerland) with excitation at 535 nm and emission at 600 nm. The IC₅₀ was defined as the concentration of compound required to inhibit cell proliferation by 50% compared to cells treated with the highest DMSO concentration.

[6] = tested on: A549; experiment: In vitro antiproliferative activity, resazurin cell viability; type: cell-based; conditions: Homo sapiens, non-small cell lung cancer, 72 h of treatment, mean ± SEM
Method: as §1
(§2) To test the newly synthesized compounds, various human cell lines were employed. HD-MB03 cells were purchased from DSMZ (Braunschweig, Germany), while A549, MDA-MB-231, RPMI-8420, SU-DHL-8, TOLEDO, VL51, SU-DHL-1, SU-DHL-18, and KM-H2 were obtained from ATCC (Manassas, VA, USA). Cells were cultured in DMEM (for MDA-MB-231 and A549) or RPMI-1640 (for RPMI-8420, SU-DHL-8, TOLEDO, VL51, SU-DHL-1, SU-DHL-18, KM-H2, and HD-MB03) media (Gibco, Milan, Italy). Both media were supplemented with 115 units/mL penicillin G (Gibco, Milan, Italy), 115 µg/mL streptomycin (Invitrogen, Milan, Italy), and 10% fetal bovine serum (Invitrogen, Milan, Italy). Peripheral blood mononuclear cells (PBMCs) were isolated from healthy donors as previously described. ^[1] For cytotoxicity assays, PBMCs were resuspended at 5 × 10⁵ cells/mL in complete RPMI medium with or without 2.5 µg/mL phytohemagglutinin (PHA) (Irvine Scientific) to stimulate T cell activation and proliferation. All cell lines were maintained at 37 °C in a humidified atmosphere containing 5% CO₂. All compounds were dissolved in DMSO at a 10 mM stock concentration. For dose–response assays, cells were seeded in 96-well plates at densities optimized for each cell line: HD-MB03 at 10,000 cells/well, A549 at 4,000 cells/well, and MDA-MB-231 at 7,000 cells/well. All other cell lines were seeded at 20,000 cells/well in a final volume of 100 µL per well. After 24 hours, cells were treated with a 6-point serial dilution of compounds starting from 10 µM, in triplicate for statistical analysis. Seventy-two hours post-treatment, 10 µL of resazurin solution (100 µg/mL) was added to each well, and cells were incubated for an additional 3–6 hours. Fluorescence was measured using a Spark 10M microplate reader (Tecan Group Ltd., Männedorf, Switzerland) with excitation at 535 nm and emission at 600 nm. […]

[7] = tested on: MDA-MB-231; experiment: as above; type: cell-based; conditions: Homo sapiens, triple-negative breast cancer, 72 h of treatment, mean ± SEM
Method: as §1, §2

[8] = tested on: SU-DHL-8; experiment: as above; type: cell-based; conditions: Homo sapiens, B lymphocyte, large cell lymphoma, 72 h of treatment, mean ± SEM
Method: as §1, §2

[9] = tested on: HD-MB03; experiment: as above; type: cell-based; conditions: Homo sapiens, medulloblastoma cells, 72 h of treatment, mean ± SEM, at least three experiments
Method: as §1, §2

[10] = tested on: RPMI-8402; experiment: as above; type: cell-based; conditions: Homo sapiens, T-lymphoblastic leukemia cells, 72 h of treatment, mean ± SEM
Method: as §1, §2

SMILES	IC50 [1]	IC50 [2]	IC50 [3]	IC50 [4]	IC50 [5]	IC50 [6]	IC50 [7]	IC50 [8]	IC50 [9]	IC50 [10]
O=S(=O)(Nc1cccc2cccnc12)c1ccc(F)cc1 [CU-O47]	0.7 µM	0.7 µM	–	–	–	–	–	–	–	–
C[C@H](Nc1ncnc2[nH]cnc12)c1cc2ccc(F)cc2nc1-c1ccccn1 [ACP-319]	–	0.8 µM	0.15 µM	3 µM	–	–	–	–	–	–
O=C(Nc1ccc([N+](=O)[O-])c(C(F)(F)F)c1)c1cc(/C=C/c2ccccc2)nc2ccccc12 [4j, (E)-N-(4-nitro-3-(trifluoromethyl)phenyl)-2-styrylquinoline-4-carboxamide]	–	–	–	–	3.2 to 8.97 µM	> 10 µM	> 10 µM	3.86 ± 0.44 µM	8.23 ± 0.47 µM	> 10 µM
O=C(Nc1ccc(C(F)(F)F)cc1)c1cc(/C=C/c2ccc(Cl)cc2)nc2ccccc12 [4z, (E)-2-(4-chlorostyryl)-N-(4-(trifluoromethyl)phenyl)quinoline-4-carboxamide]	–	–	–	–	3.2 to 8.97 µM	> 10 µM	> 10 µM	4.77 ± 0.32 µM	6.73 ± 1.15 µM	> 10 µM
O=C(Nc1ccc(C(F)(F)F)cc1)c1cc(/C=C/c2ccccc2)nc2ccccc12 [4h, (E)-2-styryl-N-(4-(trifluoromethyl)phenyl)quinoline-4-carboxamide]	–	–	–	–	3.2 to 8.97 µM	> 10 µM	> 10 µM	7.09 ± 0.25 µM	> 10 µM	8.97 ± 0.75 µM
O=C(Nc1ccc([N+](=O)[O-])c(C(F)(F)F)c1)c1cc(/C=C/c2ccc(Cl)cc2)nc2ccccc12 [4w, (E)-2-(4-chlorostyryl)-N-(4-nitro-3-(trifluoromethyl)phenyl)quinoline-4-carboxamide]	–	–	–	–	3.2 to 8.97 µM	> 10 µM	> 10 µM	8.25 ± 0.67 µM	> 10 µM	3.56 ± 0.44 µM
O=C(Nc1ccc(C(F)(F)F)cc1)c1cc(/C=C/c2ccc(Cl)c(Cl)c2)nc2ccccc12 [4ab, (E)-2-(3,4-dichlorostyryl)-N-(4-(trifluoromethyl)phenyl)quinoline-4-carboxamide]	–	–	–	–	3.2 to 8.97 µM	> 10 µM	> 10 µM	6.54 ± 0.44 µM	7.83 ± 0.98 µM	> 10 µM
COc1cc(/C=C/c2cc(C(=O)Nc3ccc(C(F)(F)F)cc3)c3ccccc3n2)cc(OC)c1OC [4r, (E)-N-(4-(trifluoromethyl)phenyl)-2-(3,4,5-trimethoxystyryl)quinoline-4-carboxamide]	–	–	–	–	–	> 10 µM	> 10 µM	2.13 ± 0.08 µM	> 10 µM	> 10 µM
Cc1cccc(NC(=O)c2cc(/C=C/c3ccccc3)nc3ccccc23)c1 [4b, (E)-2-styryl-N-(m-tolyl)quinoline-4-carboxamide]	–	–	–	–	–	> 10 µM	> 10 µM	5.05 ± 0.58 µM	> 10 µM	> 10 µM
O=C(Nc1ccccc1)c1cc(/C=C/c2ccccc2)nc2ccccc12 [4a, (E)-N-phenyl-2-styrylquinoline-4-carboxamide]	–	–	–	–	–	> 10 µM	> 10 µM	> 10 µM	> 10 µM	> 10 µM
Cc1cccc(/C=C/c2cc(C(=O)Nc3ccc(C(F)(F)F)cc3)c3ccccc3n2)c1 [4y, (E)-2-(3-methylstyryl)-N-(4-(trifluoromethyl)phenyl)quinoline-4-carboxamide]	–	–	–	–	3.2 to 8.97 µM	8.73 ± 0.74 µM	7.84 ± 0.65 µM	3.25 ± 0.23 µM	3.84 ± 0.22 µM	3.2 ± 0.19 µM
